Test results taken from paper PMC10477886, “Adamantaniline Derivatives Target ATP5B to Inhibit Translation of Hypoxia Inducible Factor‐1α” (Advanced Science, 2023).

Test system: HIF‐1α transcriptional activity
Assay: dual‐luciferase assay (HRE‐Firefly Luciferase / renilla) of HIF‐1α transcriptional activity in HEK293T cells
Type: cell-based, human
Settings: mean ± s.d. (n = 3); for inhibition at 10 µM: read-out: Inhibition rate [%] @ 10 µM; for IC50: HEK293T dual‐luciferase
Text: To screen HIF‐1α inhibitors in a robust cell‐based assay, we optimized the dual‐luciferase assay with pLenti‐HIF‐1αP2A (P402A and P564A) instead of pLenti‐HIF‐1α in order to ensure the expression of HIF‐1α under normoxia condition. In the cell‐based assay, HEK293T cells were co‐transfected with pLenti‐HIF‐1αP2A, renilla, and hypoxia‐responsive element (HRE)‐Firefly Luciferase (Figure S1, Supporting Information). […] Three compounds were selected as the positive controls including two inhibitors (PX‐478 2HCl and BAY 87‐2243) and an activator (BAY 85‐3934) in the screening assay.
HEK293T cells were stably transfected with reporter plasmids pGMLV‐HRE‐LUC‐puromycin, pMSCV‐renilla‐hygromycin, and pLenti‐HIF‐1αP2A‐neomycin. Stable cell line constructed above, 293‐HIF‐1αP2A‐HRE‐Fluc‐Rluc, were seeded in 384‐well plates and cultured in DMEM with 10% FBS. The following day, the cells were pretreated with indicated chemical compounds from the National Compound Library of the Shanghai Institute of Materia Medica, Chinese Academy of Sciences by Mosquito HTS. The plate was then placed in an incubator chamber and incubated at 37 °C for 24 h. The ratio of firefly/renilla luciferase activity was determined by using the Envision (PerkinElmer).
Stable cell line 293‐HRE‐Fluc‐Rluc expressed luciferase and renilla or HEK293T cells transfected with indicated plasmids (pGL3‐HRE‐luciferase and pSV40‐renilla) were seeded in a 96‐well plate. The cells were co‐incubated with indicated compounds for 24 h and luciferase activities were detected in Microplate Reader (BioTek SYNEGRY H1) using the Dual Luciferase Reporter Assay System Kit (Promega, USA E1910) according to the manufacturer's instruction. The relative Luc activity was normalized by renilla activity. Three independent experiments were performed, and the calculated means and SDs are presented.

[1] = Homo sapiens, HEK-293T, 10 µM, incubation 24 h, HEK293T

Question: Which inhibition at 10 µM [1] does the source give for CC(=O)Nc1cccc(C(=O)Nc2ccc(C34CC5CC(CC(C5)C3)C4)cc2)c1 [1‐3w, 3‐Acetamido‐N‐(4‐((3r,5r,7r)‐Adamantan‐1‐yl)Phenyl)Benzamide] here?
Answer: 77.4 ± 2.3%

Question: What about the IC50 (Homo sapiens, HEK-293T) of the same compound?
Answer: 1900 ± 200 nM

Question: Which inhibition at 10 µM [1] does the source give for Cc1cc(C23CC4CC(CC(C4)C2)C3)cc(C)c1NC(=O)c1cccc(Cl)c1 [3‐2a, N‐(4‐((3r,5r,7r)‐Adamantan‐1‐yl)−2,6‐Dimethylphenyl)−3‐Chlorobenzamide] here?
Answer: 34.8 ± 3.8%

Question: For O=C(Nc1ccc(C23CC4CC(CC(C4)C2)C3)cc1)c1ccc(C(F)(F)F)cc1 [1‐3af, N‐(4‐((3r,5r,7r)‐Adamantan‐1‐yl)Phenyl)−4‐(Trifluoromethyl)Benzamide], which inhibition at 10 µM [1] is on record?
Answer: 37.9 ± 0.7%

Question: What does the source list for Nc1ccc(C(=O)Nc2ccc(C34CC5CC(CC(C5)C3)C4)cc2)cc1 [1‐3u, N‐(4‐((3r,5r,7r)‐Adamantan‐1‐yl)Phenyl)−4‐Aminobenzamide]?
Answer: inhibition at 10 µM [1]: 98.4 ± 0.1%; IC50 (Homo sapiens, HEK-293T): 110 ± 10 nM

Question: What does the source list for O=C(Nc1ccc(C23CC4CC(CC(C4)C2)C3)cc1)c1ccccc1O [1‐3m, N‐(4‐((3r,5r,7r)‐Adamantan‐1‐yl)Phenyl)−2‐Hydroxybenzamide]?
Answer: inhibition at 10 µM [1]: 88.4 ± 0.2%; IC50 (Homo sapiens, HEK-293T): 510 ± 20 nM

Question: How did the inhibition at 10 µM [1] turn out when O=C(Nc1ccc(C23CC4CC(CC(C4)C2)C3)cc1)c1cccnc1 [1‐4b, N‐(4‐((3r,5r,7r)‐Adamantan‐1‐yl)Phenyl)Nicotinamide] was run?
Answer: 75.2 ± 1.9%

Question: What does the source list for Nc1cccnc1C(=O)Nc1ccc(C23CC4CC(CC(C4)C2)C3)cc1 [1‐4r, N‐(4‐((3r,5r,7r)‐Adamantan‐1‐yl)Phenyl)−3‐Aminopicolinamide]?
Answer: inhibition at 10 µM [1]: 97.5 ± 1%; IC50 (Homo sapiens, HEK-293T): 170 ± 20 nM

Question: How did the inhibition at 10 µM [1] turn out when O=C(Nc1ccc(C23CC4CC(CC(C4)C2)C3)cc1)c1cncs1 [1‐4i, N‐(4‐((3r,5r,7r)‐Adamantan‐1‐yl)Phenyl)thiazole‐5‐Carboxamide] was run?
Answer: 97.1 ± 0.4%

Question: What about the IC50 (Homo sapiens, HEK-293T) of the same compound?
Answer: 520 ± 20 nM

Question: How did the inhibition at 10 µM [1] turn out when Cn1cccc1C(=O)Nc1ccc(C23CC4CC(CC(C4)C2)C3)cc1 [1‐4n, N‐(4‐((3r,5r,7r)‐Adamantan‐1‐yl)Phenyl)−1‐Methyl‐1H‐Pyrrole‐2‐Carboxamide] was run?
Answer: 57.5 ± 2%

Question: Which inhibition at 10 µM [1] does the source give for CCCCCCOc1ccccc1C(=O)Nc1ccc(C23CC4CC(CC(C4)C2)C3)cc1 [1‐3ai, N‐(4‐((3r,5r,7r)‐Adamantan‐1‐yl)Phenyl)−2‐(Hexyloxy)Benzamide] here?
Answer: 28.2 ± 5.5%

Question: With O=C(Nc1ccc(C23CC4CC(CC(C4)C2)C3)cc1)c1cccc(Br)c1 [1‐3e, N‐(4‐((3r,5r,7r)‐Adamantan‐1‐yl)Phenyl)−3‐Bromobenzamide] as the compound, how does the inhibition at 10 µM [1] read?
Answer: 86.3 ± 0.2%

Question: And the IC50 (Homo sapiens, HEK-293T)?
Answer: 1400 ± 300 nM

Question: For O=C(Nc1ccc(C23CC4CC(CC(C4)C2)C3)cc1)c1ccc(Br)cc1 [1‐3f, N‐(4‐((3r,5r,7r)‐Adamantan‐1‐yl)Phenyl)−4‐Bromobenzamide], which inhibition at 10 µM [1] is on record?
Answer: 67.1 ± 5.1%

Question: How did the inhibition at 10 µM [1] turn out when Cc1cc(C23CC4CC(C)(CC(C)(C4)C2)C3)cc(C)c1NC(=O)c1cccc(Cl)c1 [3‐2f, 3‐Chloro‐N‐(4‐((1r,3R,5S,7r)−3,5‐Dimethyladamantan‐1‐yl)−2,6‐Dimethylphenyl)Benzamide] was run?
Answer: 65.7 ± 6.7%

Question: With O=C(Nc1ccc(C23CC4CC(CC(C4)C2)C3)cc1)c1ccc(N2CCOCC2)cc1 [1‐3ag, N‐(4‐((3r,5r,7r)‐Adamantan‐1‐yl)Phenyl)−4‐Morpholinobenzamide] as the compound, how does the inhibition at 10 µM [1] read?
Answer: 41.6 ± 8.9%

Question: What does the source list for O=C(CCCCBr)Nc1cccc(C(=O)Nc2ccc(C34CC5CC(CC(C5)C3)C4)cc2)c1 [1‐3al, N‐(4‐((1s,3s)‐Adamantan‐1‐yl)Phenyl)−3‐(5‐Bromopentanamido)Benzamide]?
Answer: inhibition at 10 µM [1]: 89.5 ± 1.1%; IC50 (Homo sapiens, HEK-293T): 1000 ± 100 nM

Question: With CC12CC3CC(C)(C1)CC(c1cnc(NC(=O)c4cccc(Cl)c4)nc1)(C3)C2 [3‐2g, 3‐Chloro‐N‐(5‐((1r,3R,5S,7r)−3,5‐Dimethyladamantan‐1‐yl)Pyrimidin‐2‐yl)Benzamide] as the compound, how does the inhibition at 10 µM [1] read?
Answer: 27.8 ± 8.8%

Question: Which inhibition at 10 µM [1] does the source give for COc1ccccc1C(=O)Nc1ccc(C23CC4CC(CC(C4)C2)C3)cc1 [1‐3g, N‐(4‐((3r,5r,7r)‐Adamantan‐1‐yl)Phenyl)−2‐Methoxybenzamide] here?
Answer: 40.2 ± 2.1%

Question: CC(NC(=O)c1ccc(NC(=O)c2ccccn2)cc1)C12CC3CC(CC(C3)C1)C2 (stereo not drawn) [2‐3c, N‐(4‐((1‐((3r,5r,7r)‐Adamantan‐1‐yl)Ethyl)Carbamoyl)Phenyl)Picolinamide] was tested. Which inhibition at 10 µM [1] did it give?
Answer: 79.9 ± 2%

Question: And the IC50 (Homo sapiens, HEK-293T)?
Answer: 2100 ± 400 nM

Question: Which results are given for Nc1ccccc1C(=O)Nc1ccc(C23CC4CC(CC(C4)C2)C3)cc1 [1‐3s, N‐(4‐((3r,5r,7r)‐Adamantan‐1‐yl)Phenyl)−2‐Aminobenzamide]?
Answer: inhibition at 10 µM [1]: 90.4 ± 1.7%; IC50 (Homo sapiens, HEK-293T): 540 ± 20 nM

Question: Which inhibition at 10 µM [1] does the source give for O=C(Nc1ccc(C23CC4CC(CC(C4)C2)C3)cc1)c1cccs1 [1‐4j, N‐(4‐((3r,5r,7r)‐Adamantan‐1‐yl)Phenyl)Thiophene‐2‐Carboxamide] here?
Answer: 98.7 ± 0.6%

Question: And the IC50 (Homo sapiens, HEK-293T)?
Answer: 390 ± 10 nM

Question: Which inhibition at 10 µM [1] does the source give for O=C(Nc1ccc(C23CC4CC(CC(C4)C2)C3)cc1)c1ccsc1 [1‐4o, N‐(4‐((3r,5r,7r)‐Adamantan‐1‐yl)Phenyl)Thiophene‐3‐Carboxamide] here?
Answer: 48.5 ± 8.7%

Question: What does the source list for COc1cccc(C(=O)Nc2ccc(C34CC5CC(CC(C5)C3)C4)cc2)c1 [1‐3h, N‐(4‐((3r,5r,7r)‐Adamantan‐1‐yl)Phenyl)−3‐Methoxybenzamide]?
Answer: inhibition at 10 µM [1]: 92.1 ± 0.6%; IC50 (Homo sapiens, HEK-293T): 820 ± 130 nM

Question: How did the inhibition at 10 µM [1] turn out when CC(C)(C)OC(=O)Nc1ccc(C(=O)Nc2ccc(C34CC5CC(CC(C5)C3)C4)cc2)cc1 [1‐3r, Tert‐Butyl (4‐((4‐((3r,5r,7r)‐Adamantan‐1‐yl)Phenyl)Carbamoyl)Phenyl)Carbamate] was run?
Answer: 54.6 ± 1.6%

Question: Which inhibition at 10 µM [1] does the source give for O=C(Nc1ccc(C23CC4CC(CC(C4)C2)C3)cc1)c1ccccc1C(F)(F)F [1‐3ad, N‐(4‐((3r,5r,7r)‐Adamantan‐1‐yl)Phenyl)−2‐(Trifluoromethyl)Benzamide] here?
Answer: 31.3 ± 3.3%

Question: Which inhibition at 10 µM [1] does the source give for CN1CCN(CCCCC(=O)Nc2ccc(C(=O)Nc3ccc(C45CC6CC(CC(C6)C4)C5)cc3)cc2)CC1 [1‐3ap, N‐(4‐((3r,5r,7r)‐Adamantan‐1‐yl)Phenyl)−4‐(5‐(4‐Methylpiperazin‐1‐yl)Pentanamido)Benzamide] here?
Answer: 88.8 ± 0.2%

Question: And the IC50 (Homo sapiens, HEK-293T)?
Answer: 1400 ± 500 nM

Question: Which results are given for O=C(Nc1ccc(C23CC4CC(CC(C4)C2)C3)cc1)c1ccncn1 [1‐4d, N‐(4‐((3r,5r,7r)‐Adamantan‐1‐yl)Phenyl)Pyrimidine‐4‐Carboxamide]?
Answer: inhibition at 10 µM [1]: 97.1 ± 0.4%; IC50 (Homo sapiens, HEK-293T): 280 ± 60 nM

Question: For CC12CC3CC(C)(C1)CC(c1ccc(NC(=O)c4cccc(Cl)c4)cc1)(C3)C2 [3‐2e, 3‐Chloro‐N‐(4‐((1r,3R,5S,7r)−3,5‐Dimethyladamantan‐1‐yl)Phenyl)Benzamide], which inhibition at 10 µM [1] is on record?
Answer: 27.1 ± 1%

Question: Which inhibition at 10 µM [1] does the source give for O=C(Nc1ccc(C23CC4CC(CC(C4)C2)C3)cc1)c1ccc(O)cc1 [1‐3o, N‐(4‐((3r,5r,7r)‐Adamantan‐1‐yl)Phenyl)−4‐Hydroxybenzamide] here?
Answer: 96.4 ± 0.2%

Question: And the IC50 (Homo sapiens, HEK-293T)?
Answer: 53 ± 8 nM

Question: With Nc1cccc(C(=O)Nc2ccc(C34CC5CC(CC(C5)C3)C4)cc2)n1 [1‐4q, N‐(4‐((3r,5r,7r)‐Adamantan‐1‐yl)Phenyl)−6‐Aminopicolinamide] as the compound, how does the inhibition at 10 µM [1] read?
Answer: 98.6 ± 0.1%

Question: And the IC50 (Homo sapiens, HEK-293T)?
Answer: 110 ± 20 nM

Question: With O=C(CCCC[C@@H]1SC[C@@H]2NC(=O)N[C@@H]21)Nc1ccc(C(=O)Nc2ccc(C34CC5CC(CC(C5)C3)C4)cc2)cc1 [1‐3y, N‐(4‐((3r,5r,7r)‐Adamantan‐1‐yl)Phenyl)−4‐(5‐((3aS,4S,6aR)−2‐Oxohexahydro‐1H‐Thieno[3,4‐d]Imidazol‐4‐yl)Pentanamido)Benzamide] as the compound, how does the “Inhibition rate [%] @ 10 µM” value (10 µM, incubation 24 h, HEK293T) read?
Answer: 90.4 ± 0.8%

Question: What about the IC50 of the same compound?
Answer: 280 ± 100 nM

Question: With O=C(Nc1ccc(C23CC4CC(CC(C4)C2)C3)cc1)c1ccccc1Br [1‐3d, N‐(4‐((3r,5r,7r)‐Adamantan‐1‐yl)Phenyl)−2‐Bromobenzamide] as the compound, how does the inhibition at 10 µM [1] read?
Answer: 52.3 ± 3.1%

Question: Which inhibition at 10 µM [1] does the source give for Cc1cnc(C(=O)Nc2ccc(C34CC5CC(CC(C5)C3)C4)cc2)cn1 [1‐4e] here?
Answer: 36.3 ± 4.2%

Question: With CCc1cc(C23CC4CC(CC(C4)C2)C3)cc(CC)c1NC(=O)c1cccc(Cl)c1 [3‐2i, N‐(4‐((3r,5r,7r)‐Adamantan‐1‐yl)−2,6‐Diethylphenyl)−3‐Chlorobenzamide] as the compound, how does the inhibition at 10 µM [1] read?
Answer: 35.1 ± 5.7%

Question: Which results are given for O=C(Nc1ccc(C23CC4CC(CC(C4)C2)C3)cc1)c1cc(Cl)ccn1 [1‐4h, N‐(4‐((3r,5r,7r)‐Adamantan‐1‐yl)Phenyl)−4‐Chloropicolinamide]?
Answer: inhibition at 10 µM [1]: 91.5 ± 1.3%; IC50 (Homo sapiens, HEK-293T): 720 ± 20 nM

Question: With CCCCCCOc1cccc(C(=O)Nc2ccc(C34CC5CC(CC(C5)C3)C4)cc2)c1 [1‐3aj, N‐(4‐((3r,5r,7r)‐Adamantan‐1‐yl)Phenyl)−3‐(Hexyloxy)Benzamide] as the compound, how does the inhibition at 10 µM [1] read?
Answer: 28.4 ± 6.9%

Question: Which results are given for COC(=O)c1ccc(O)c(NC(=O)COc2ccc(C34CC5CC(CC(C5)C3)C4)cc2)c1 [LW6, reference compound]?
Answer: inhibition at 10 µM [1]: 70.9 ± 3.7%; IC50 (Homo sapiens, HEK-293T): 2600 ± 500 nM

Question: With COc1ccc(C(=O)Nc2ccc(C34CC5CC(CC(C5)C3)C4)cc2)cc1 [1‐3i, N‐(4‐((3r,5r,7r)‐Adamantan‐1‐yl)Phenyl)−4‐Methoxybenzamide] as the compound, how does the inhibition at 10 µM [1] read?
Answer: 86 ± 1.4%

Question: And the IC50 (Homo sapiens, HEK-293T)?
Answer: 1600 ± 300 nM

Question: Which inhibition at 10 µM [1] does the source give for N#Cc1ccc(C(=O)Nc2ccc(C34CC5CC(CC(C5)C3)C4)cc2)cc1 [1‐3l, N‐(4‐((3r,5r,7r)‐Adamantan‐1‐yl)Phenyl)−4‐Cyanobenzamide] here?
Answer: 61.2 ± 5.5%
